Measurements reported in the supplement of paper PMC10307832.

Legend:
Assay in all cases: relative viability (nuclei count vs DMSO), 5 days (fraction); higher = more cells survive
NCI-H1993 = system: NCI-H1993
How it was run: (§1)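 After 5 days of treatment, lung cancer cells in 1536-well plates were fixed and stained in a single step (final 0.05% Triton X-100, 1% formaldehyde, 1 ug/ml Hoechst) and their nuclei counted on 4× images. Treatment had been applied by pin tool the day after seeding as one drug alone or as a fixed anchor-drug dose with five library-drug doses (not always all listed) in √10 steps. Relative viability is the nuclei count of treated wells divided by that of vehicle wells, and values are medians of duplicate plates.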

NCI-H2405 = system: NCI-H2405
How it was run: as §1

NCI-H1395 = system: NCI-H1395
How it was run: as §1

NCI-H2087 = system: NCI-H2087
How it was run: as §1

NCI-H1792 = system: NCI-H1792
How it was run: as §1

NCI-H2342 = system: NCI-H2342
How it was run: as §1

LOU-NH91 = system: LOU-NH91
How it was run: as §1

HARA = system: HARA
How it was run: as §1

BEN = system: BEN
How it was run: as §1

HCC-827 = system: HCC-827
How it was run: as §1

EKVX = system: EKVX
How it was run: as §1

NCI-H2009 = system: NCI-H2009
How it was run: as §1

SK-LU-1 = system: SK-LU-1
How it was run: as §1

NCI-H1355 = system: NCI-H1355
How it was run: as §1

NCI-H522 = system: NCI-H522
How it was run: as §1

NCI-H1437 = system: NCI-H1437
How it was run: as §1

NCI-H661 = system: NCI-H661
How it was run: as §1

NCI-H1734 = system: NCI-H1734
How it was run: as §1

NCI-H647 = system: NCI-H647
How it was run: as §1

NCI-H2170 = system: NCI-H2170
How it was run: as §1

SK-MES-1 = system: SK-MES-1
How it was run: as §1

In the case of `CC(=O)O[C@@]12CO[C@@H]1C[C@H](O)[C@@]1(C)C(=O)[C@H](O)C3=C(C)[C@@H](OC(=O)[C@H](O)[C@@H](NC(=O)OC(C)(C)C)c4ccccc4)C[C@@](O)([C@@H](OC(=O)c4ccccc4)[C@H]21)C3(C)C` [Docetaxel] + CCNC(=O)c1noc(-c2cc(C(C)C)c(O)cc2O)c1-c1ccc(CN2CCOCC2)cc1 [Luminespib] (partner 0.01 µM), the relative viability (NCI-H1993; first compound 0.0002 µM) is reported as 0.771, the relative viability (NCI-H1993; first compound 0.000632 µM) is reported as 0.783 and the relative viability (NCI-H1993; first compound 0.002 µM) is reported as 0.616. For the same compound, the relative viability (NCI-H1993; first compound 0.006325 µM) was 0.481, the relative viability (NCI-H1993; first compound 0.02 µM) was 0.446 and the relative viability (NCI-H2405; first compound 0.0002 µM) was 0.607. The relative viability (NCI-H2405; first compound 0.000632 µM) was 0.603, the relative viability (NCI-H2405; first compound 0.002 µM) was 0.486 and the relative viability (NCI-H2405; first compound 0.006325 µM) was 0.33. For the same compound, the relative viability (NCI-H2405; first compound 0.02 µM) was 0.22, the relative viability (NCI-H1395; first compound 0.0002 µM) was 0.699 and the relative viability (NCI-H1395; first compound 0.000632 µM) was 0.771. The relative viability (NCI-H1395; first compound 0.002 µM) was 0.496, the relative viability (NCI-H1395; first compound 0.006325 µM) was 0.391 and the relative viability (NCI-H1395; first compound 0.02 µM) was 0.286. For the same compound, the relative viability (NCI-H2087; first compound 0.0002 µM) was 0.166, the relative viability (NCI-H2087; first compound 0.000632 µM) was 0.189 and the relative viability (NCI-H2087; first compound 0.002 µM) was 0.147. It also gave a relative viability (NCI-H2087; first compound 0.006325 µM) of 0.168, a relative viability (NCI-H2087; first compound 0.02 µM) of 0.124 and a relative viability (NCI-H1792; first compound 0.0002 µM) of 0.43. It also gave a relative viability (NCI-H1792; first compound 0.000632 µM) of 0.374, a relative viability (NCI-H1792; first compound 0.002 µM) of 0.382 and a relative viability (NCI-H1792; first compound 0.006325 µM) of 0.338. For the same compound, the relative viability (NCI-H1792; first compound 0.02 µM) was 0.212, the relative viability (NCI-H2342; first compound 0.0002 µM) was 0.673 and the relative viability (NCI-H2342; first compound 0.000632 µM) was 0.677. It also gave a relative viability (NCI-H2342; first compound 0.002 µM) of 0.673, a relative viability (NCI-H2342; first compound 0.006325 µM) of 0.462 and a relative viability (NCI-H2342; first compound 0.02 µM) of 0.4. For the same compound, the relative viability (LOU-NH91; first compound 0.0002 µM) was 0.299, the relative viability (LOU-NH91; first compound 0.000632 µM) was 0.384 and the relative viability (LOU-NH91; first compound 0.002 µM) was 0.299. The relative viability (LOU-NH91; first compound 0.006325 µM) was 0.266, the relative viability (LOU-NH91; first compound 0.02 µM) was 0.212 and the relative viability (HARA; first compound 0.0002 µM) was 0.46. For the same compound, the relative viability (HARA; first compound 0.000632 µM) was 0.124, the relative viability (HARA; first compound 0.002 µM) was 0.0629 and the relative viability (HARA; first compound 0.006325 µM) was 0.0587. The relative viability (HARA; first compound 0.02 µM) was 0.0441, the relative viability (BEN; first compound 0.0002 µM) was 0.0838 and the relative viability (BEN; first compound 0.000632 µM) was 0.377. The relative viability (BEN; first compound 0.002 µM) was 0.373, the relative viability (BEN; first compound 0.006325 µM) was 0.172 and the relative viability (BEN; first compound 0.02 µM) was 0.116. It also gave a relative viability (HCC-827; first compound 0.0002 µM) of 0.588, a relative viability (HCC-827; first compound 0.000632 µM) of 0.67 and a relative viability (HCC-827; first compound 0.002 µM) of 0.244. For the same compound, the relative viability (HCC-827; first compound 0.006325 µM) was 0.159, the relative viability (HCC-827; first compound 0.02 µM) was 0.142 and the relative viability (EKVX; first compound 0.0002 µM) was 0.85. The relative viability (EKVX; first compound 0.000632 µM) was 0.795, the relative viability (EKVX; first compound 0.002 µM) was 0.45 and the relative viability (EKVX; first compound 0.006325 µM) was 0.305. For the same compound, the relative viability (EKVX; first compound 0.02 µM) was 0.161, the relative viability (NCI-H2009; first compound 0.0002 µM) was 0.979 and the relative viability (NCI-H2009; first compound 0.000632 µM) was 1.09. The relative viability (NCI-H2009; first compound 0.002 µM) was 0.956, the relative viability (NCI-H2009; first compound 0.006325 µM) was 0.78 and the relative viability (NCI-H2009; first compound 0.02 µM) was 0.261. For the same compound, the relative viability (SK-LU-1; first compound 0.0002 µM) was 0.205, the relative viability (SK-LU-1; first compound 0.000632 µM) was 0.218 and the relative viability (SK-LU-1; first compound 0.006325 µM) was 0.193. For the same compound, the relative viability (SK-LU-1; first compound 0.02 µM) was 0.159, the relative viability (NCI-H1355; first compound 0.0002 µM) was 0.784 and the relative viability (NCI-H1355; first compound 0.000632 µM) was 0.66. For the same compound, the relative viability (NCI-H1355; first compound 0.002 µM) was 0.599, the relative viability (NCI-H1355; first compound 0.006325 µM) was 0.255 and the relative viability (NCI-H1355; first compound 0.02 µM) was 0.194. For the same compound, the relative viability (NCI-H522; first compound 0.0002 µM) was 1.19, the relative viability (NCI-H522; first compound 0.000632 µM) was 1.02 and the relative viability (NCI-H522; first compound 0.002 µM) was 0.703. For the same compound, the relative viability (NCI-H522; first compound 0.006325 µM) was 0.419, the relative viability (NCI-H522; first compound 0.02 µM) was 0.357 and the relative viability (NCI-H1437; first compound 0.0002 µM) was 1.07. It also gave a relative viability (NCI-H1437; first compound 0.000632 µM) of 1.09, a relative viability (NCI-H1437; first compound 0.002 µM) of 0.277 and a relative viability (NCI-H1437; first compound 0.006325 µM) of 0.234. The relative viability (NCI-H1437; first compound 0.02 µM) was 0.167, the relative viability (NCI-H661; first compound 0.0002 µM) was 0.782 and the relative viability (NCI-H661; first compound 0.000632 µM) was 0.933. The relative viability (NCI-H661; first compound 0.002 µM) was 0.707, the relative viability (NCI-H661; first compound 0.006325 µM) was 0.432 and the relative viability (NCI-H661; first compound 0.02 µM) was 0.323. For the same compound, the relative viability (NCI-H1734; first compound 0.0002 µM) was 0.213, the relative viability (NCI-H1734; first compound 0.000632 µM) was 0.197 and the relative viability (NCI-H1734; first compound 0.002 µM) was 0.175. It also gave a relative viability (NCI-H1734; first compound 0.006325 µM) of 0.161, a relative viability (NCI-H1734; first compound 0.02 µM) of 0.14 and a relative viability (NCI-H647; first compound 0.0002 µM) of 0.112. The relative viability (NCI-H647; first compound 0.000632 µM) was 0.126, the relative viability (NCI-H647; first compound 0.002 µM) was 0.147 and the relative viability (NCI-H647; first compound 0.006325 µM) was 0.12. The relative viability (NCI-H647; first compound 0.02 µM) was 0.0798, the relative viability (NCI-H2170; first compound 0.0002 µM) was 0.726 and the relative viability (NCI-H2170; first compound 0.000632 µM) was 0.704. The relative viability (NCI-H2170; first compound 0.002 µM) was 0.451, the relative viability (NCI-H2170; first compound 0.006325 µM) was 0.261 and the relative viability (NCI-H2170; first compound 0.02 µM) was 0.148. For the same compound, the relative viability (SK-MES-1; first compound 0.0002 µM) was 0.695, the relative viability (SK-MES-1; first compound 0.000632 µM) was 0.618 and the relative viability (SK-MES-1; first compound 0.002 µM) was 0.267. It also gave a relative viability (SK-MES-1; first compound 0.02 µM) of 0.163.
